Data as given in patent US20050070510A1, “Substituted tetracycline compounds as synergistic antifungal agents” (Paratek Pharmaceuticals, Inc., priority 2001, published 2005).

The compounds below were run on COS-1 cells (assay: In vitro mammalian cytotoxicity assay (Resazurin)).

Row | Compound | In Vitro Cytotoxicity
1 | CN(C)c1ccc(-c2cc(N)c(O)c3c2C[C@@]2(N)C[C@@]4(N)C(N(C)C)C(O)=C(C(N)=O)C(=O)[C@@]4(C#N)C(O)=C2C3=O)cc1 (stereo partly drawn) [RB] | * (toxicities greater than >25 μg/ml are represented by *)
2 | CN(C)[C@@H]1C(O)=C(C(N)=O)C(=O)[C@@]2(C#N)C(O)=C3C(=O)c4c(O)c(C(C)(C)C)cc(CN)c4C[C@@]3(N)C[C@@]12N [RC] | * (toxicities greater than >25 μg/ml are represented by *)
3 | CN(C)c1ccc(-c2cc([N+](=O)O)c(O)c3c2C[C@@]2(N)C[C@@]4(N)C(N(C)C)C(O)=C(C(N)=O)C(=O)[C@@]4(C#N)C(O)=C2C3=O)cc1 (stereo partly drawn) [RE] | ** (toxicities less than 25 μg/mL are represented by **)
4 | CN(C)[C@@H]1C(O)=C(C(N)=O)C(=O)[C@@]2(C#N)C(O)=C3C(=O)c4c(ccc(CC(=O)c5ccno5)c4O)C[C@@]3(N)C[C@@]12N [RF] | * (toxicities greater than >25 μg/ml are represented by *)
5 | COC(=O)c1cc(NC(=O)c2ccno2)cc(-c2ccc(O)c3c2C[C@@]2(N)C[C@@]4(N)C(N(C)C)C(O)=C(C(N)=O)C(=O)[C@@]4(C#N)C(O)=C2C3=O)c1 (stereo partly drawn) [RG] | * (toxicities greater than >25 μg/ml are represented by *)
6 | CN(C)C1C(O)=C(C(N)=O)C(=O)[C@@]2(C#N)C(O)=C3C(=O)c4c(O)ccc(-c5ccc(NC(=O)c6ccno6)cc5)c4C[C@@]3(N)C[C@@]12N (stereo partly drawn) [RH] | * (toxicities greater than >25 μg/ml are represented by *)
7 | Cc1noc(C)c1S(=O)(=O)Nc1ccc2c(c1O)C(=O)C1=C(O)[C@]3(C#N)C(=O)C(C(N)=O)=C(O)[C@@H](N(C)C)[C@]3(N)C[C@]1(N)C2 [RI] | ** (toxicities less than 25 μg/mL are represented by **)
8 | CCc1cc(C(C)=O)c(O)c2c1C[C@@]1(N)C[C@@]3(N)[C@H](N(C)C)C(O)=C(C(N)=O)C(=O)[C@@]3(C#N)C(O)=C1C2=O [RJ] | ** (toxicities less than 25 μg/mL are represented by **)
9 | CCc1cc(CNCC(C)C)c(O)c2c1C[C@@]1(N)C[C@@]3(N)[C@H](N(C)C)C(O)=C(C(N)=O)C(=O)[C@@]3(C#N)C(O)=C1C2=O [RK] | * (toxicities greater than >25 μg/ml are represented by *)
10 | CN(C)[C@@H]1C(O)=C(C(N)=O)C(=O)[C@@]2(C#N)C(O)=C3C(=O)c4c(O)c(CNC(=O)C5CC5)cc(-c5ccc(C(C)(C)C)cc5)c4C[C@@]3(N)C[C@@]12N [RM] | ** (toxicities less than 25 μg/mL are represented by **)
11 | CC(C)CC(Cc1ccc(O)c2c1C[C@@]1(N)C[C@@]3(N)[C@H](N(C)C)C(O)=C(C(N)=O)C(=O)[C@@]3(C#N)C(O)=C1C2=O)CC(C)C [RN] | ** (toxicities less than 25 μg/mL are represented by **)
12 | CN(C)[C@@H]1C(O)=C(C(N)=O)C(=O)[C@@]2(C#N)C(O)=C3C(=O)c4c(O)c(CN)cc(-c5ccccc5)c4C[C@@]3(N)C[C@@]12N [RO] | * (toxicities greater than >25 μg/ml are represented by *)
13 | CN(C)[C@@H]1C(O)=C(C(N)=O)C(=O)[C@@]2(C#N)C(O)=C3C(=O)c4c(ccc(CNCC(C)(C)C)c4O)[C@H](N)[C@@]3(N)[C@H](O)[C@@]12N [RP] | * (toxicities greater than >25 μg/ml are represented by *)
14 | CC(C)CNCc1ccc2c(c1O)C(=O)C1=C(O)[C@]3(C#N)C(=O)C(C(N)=O)=C(O)[C@@H](N(C)C)[C@]3(N)[C@@H](O)[C@]1(N)[C@H]2N [RQ] | * (toxicities greater than >25 μg/ml are represented by *)
15 | CN(C)[C@@H]1C(O)=C(C(N)=O)C(=O)[C@@]2(C#N)C(O)=C3C(=O)c4c(ccc(NC5CCC(Cc6ccccc6)CC5)c4O)[C@H](N)[C@@]3(N)[C@H](O)[C@@]12N (stereo partly drawn) [RS] | * (toxicities greater than >25 μg/ml are represented by *)
16 | COc1ccc(-c2ccc(O)c3c2C[C@@]2(N)C[C@@]4(N)[C@H](N(C)C)C(O)=C(C(N)=O)C(=O)[C@@]4(C#N)C(O)=C2C3=O)c(OC)c1OC [RT] | ** (toxicities less than 25 μg/mL are represented by **)
17 | COC(=O)c1ccc(O)c2c1C[C@@]1(N)C[C@@]3(N)[C@H](N(C)C)C(O)=C(C(N)=O)C(=O)[C@@]3(C#N)C(O)=C1C2=O [RV] | ** (toxicities less than 25 μg/mL are represented by **)
18 | CN(C)[C@@H]1C(O)=C(C(N)=O)C(=O)[C@@]2(C#N)C(O)=C3C(=O)c4c(ccc(CNC(=O)c5ccccc5)c4O)C[C@@]3(N)C[C@@]12N [RW] | * (toxicities greater than >25 μg/ml are represented by *)
19 | CCCCN(c1ccc2c(c1O)C(=O)C1=C(O)[C@]3(C#N)C(=O)C(C(N)=O)=C(O)[C@@H](N(C)C)[C@]3(N)[C@@H](O)[C@]1(N)[C@H]2N)C1CCN(C)CC1 [RX] | * (toxicities greater than >25 μg/ml are represented by *)
20 | CCCCN(c1ccc2c(c1O)C(=O)C1=C(O)[C@]3(C#N)C(=O)C(C(N)=O)=C(O)[C@@H](N(C)C)[C@]3(N)C[C@]1(N)C2)C1CCN(C)CC1 [RY] | * (toxicities greater than >25 μg/ml are represented by *)
21 | CN(C)[C@@H]1C(O)=C(C(N)=O)C(=O)[C@@]2(C#N)C(O)=C3C(=O)c4c(O)ccc(NS(C)(=O)=O)c4C[C@@]3(N)C[C@@]12N [RZ] | * (toxicities greater than >25 μg/ml are represented by *)

Row | Compound | In Vitro Cytotoxicity
22 | CN(C)[C@@H]1C(O)=C(C(N)=O)C(=O)[C@@]2(C#N)C(O)=C3C(=O)c4c(ccc(N5CCCCC5)c4O)[C@H](N)[C@@]3(N)[C@H](O)[C@@]12N [SA] | * (toxicities greater than >25 μg/ml are represented by *)
23 | CC(=O)c1cc(F)c(O)c2c1C[C@@]1(N)C[C@@]3(N)[C@H](N(C)C)C(O)=C(C(N)=O)C(=O)[C@@]3(C#N)C(O)=C1C2=O [SB] | * (toxicities greater than >25 μg/ml are represented by *)
24 | CNc1ccc(NC(=O)Nc2cc(N(C)C)c3c(c2O)C(=O)C2=C(O)[C@]4(C#N)C(=O)C(C(N)=O)=C(O)[C@@H](N(C)C)[C@]4(N)C[C@]2(N)C3)cc1 [SE] | * (toxicities greater than >25 μg/ml are represented by *)
25 | COC(CN(Cc1ccc(O)c2c1C[C@@]1(N)C[C@@]3(N)[C@H](N(C)C)C(O)=C(C(N)=O)C(=O)[C@@]3(C#N)C(O)=C1C2=O)CC(OC)OC)OC [SG] | * (toxicities greater than >25 μg/ml are represented by *)
26 | CN(C)[C@@H]1C(O)=C(C(N)=O)C(=O)[C@@]2(C#N)C(O)=C3C(=O)c4c(O)ccc(CNCc5cccn5C)c4C[C@@]3(N)C[C@@]12N [SH] | * (toxicities greater than >25 μg/ml are represented by *)
27 | CN(C)[C@@H]1C(O)=C(C(N)=O)C(=O)[C@@]2(C#N)C(O)=C3C(=O)c4c(O)ccc(CNCc5ccc[nH]5)c4C[C@@]3(N)C[C@@]12N [SI] | * (toxicities greater than >25 μg/ml are represented by *)
28 | CN(C)[C@@H]1C(O)=C(C(N)=O)C(=O)[C@@]2(C#N)C(O)=C3C(=O)c4c(ccc(NC5CCN(Cc6ccccc6)CC5)c4O)C[C@@]3(N)C[C@@]12N [SJ] | * (toxicities greater than >25 μg/ml are represented by *)
29 | CN(C)c1cc(CNCc2cccn2C)c(O)c2c1C[C@@]1(N)C[C@@]3(N)[C@H](N(C)C)C(O)=C(C(N)=O)C(=O)[C@@]3(C#N)C(O)=C1C2=O [SK] | * (toxicities greater than >25 μg/ml are represented by *)
30 | C#CCOC(=O)Nc1cc(N(C)C)c2c(c1O)C(=O)C1=C(O)[C@]3(C#N)C(=O)C(C(N)=O)=C(O)[C@@H](N(C)C)[C@]3(N)C[C@]1(N)C2 [SL] | ** (toxicities less than 25 μg/mL are represented by **)
31 | CN(C)c1cc(-c2ccoc2)c(O)c2c1C[C@@]1(N)C[C@@]3(N)[C@H](N(C)C)C(O)=C(C(N)=O)C(=O)[C@@]3(C#N)C(O)=C1C2=O [SN] | ** (toxicities less than 25 μg/mL are represented by **)
32 | CN(C)[C@@H]1C(O)=C(C(N)=O)C(=O)[C@@]2(C#N)C(O)=C3C(=O)c4c(ccc(N5CCCCC5)c4O)C[C@@]3(N)C[C@@]12N [SO] | ** (toxicities less than 25 μg/mL are represented by **)
33 | Cc1cc(CNCc2cc(N(C)C)c3c(c2O)C(=O)C2=C(O)[C@]4(C#N)C(=O)C(C(N)=O)=C(O)[C@@H](N(C)C)[C@]4(N)C[C@]2(N)C3)[nH]c1C [SP] | * (toxicities greater than >25 μg/ml are represented by *)
34 | CN(C)c1cc(-c2ccc(CN3CCCC3)o2)c(O)c2c1C[C@@]1(N)C[C@@]3(N)[C@H](N(C)C)C(O)=C(C(N)=O)C(=O)[C@@]3(C#N)C(O)=C1C2=O [SQ] | * (toxicities greater than >25 μg/ml are represented by *)
35 | CN(C)[C@@H]1C(O)=C(C(N)=O)C(=O)[C@@]2(C#N)C(O)=C3C(=O)c4c(O)ccc(-c5ccc(CNC6CCCCC6)o5)c4C[C@@]3(N)C[C@@]12N [SR] | ** (toxicities less than 25 μg/mL are represented by **)
36 | CN(C)[C@@H]1C(O)=C(C(N)=O)C(=O)[C@@]2(C#N)C(O)=C3C(=O)c4c(O)ccc(-c5ccc(CNCc6ccccc6)o5)c4C[C@@]3(N)C[C@@]12N [SS] | ** (toxicities less than 25 μg/mL are represented by **)
37 | CN(C)CCN(C)Cc1ccc(-c2cc(N(C)C)c3c(c2O)C(=O)C2=C(O)[C@]4(C#N)C(=O)C(C(N)=O)=C(O)[C@@H](N(C)C)[C@]4(N)C[C@]2(N)C3)s1 [ST] | * (toxicities greater than >25 μg/ml are represented by *)
38 | CN(C)c1cc(CNC(=O)C(Cc2ccccc2)N(C)C)c(O)c2c1C[C@@]1(N)C[C@@]3(N)[C@H](N(C)C)C(O)=C(C(N)=O)C(=O)[C@@]3(C#N)C(O)=C1C2=O (stereo partly drawn) [SU] | ** (toxicities less than 25 μg/mL are represented by **)
39 | CC(N)CNCc1cc(N(C)C)c2c(c1O)C(=O)C1=C(O)[C@]3(C#N)C(=O)C(C(N)=O)=C(O)[C@@H](N(C)C)[C@]3(N)C[C@]1(N)C2 (stereo partly drawn) [SV] | * (toxicities greater than >25 μg/ml are represented by *)
40 | CN(C)c1cc(CNC(=O)c2ccco2)c(O)c2c1C[C@@]1(N)C[C@@]3(N)[C@H](N(C)C)C(O)=C(C(N)=O)C(=O)[C@@]3(C#N)C(O)=C1C2=O [SW] | * (toxicities greater than >25 μg/ml are represented by *)
41 | CN(C)[C@@H]1C(O)=C(C(N)=O)C(=O)[C@@]2(C#N)C(O)=C3C(=O)c4c(O)ccc(-c5ccc(CNC6CC6)o5)c4C[C@@]3(N)C[C@@]12N [SX] | ** (toxicities less than 25 μg/mL are represented by **)
42 | CN(C)[C@@H]1C(O)=C(C(N)=O)C(=O)[C@@]2(C#N)C(O)=C3C(=O)c4c(O)ccc(-c5ccc(CNC(C)(C)C)o5)c4C[C@@]3(N)C[C@@]12N [SY] | * (toxicities greater than >25 μg/ml are represented by *)
